Key:
Acetylcholinesterase = Acetylcholinesterase (Electrophorus electricus, UniProt O42275); assay: Inhibition of electric eel AChE using acetylthiocholine as substrate assessed as concentration of 5-thio-2-nitrobenzoic acid ion formed by spectrophotometric/Ellman's method
[1] = Permeability of the compound by PAMPA-BBB assay

Sequence of Acetylcholinesterase (O42275 whole entry): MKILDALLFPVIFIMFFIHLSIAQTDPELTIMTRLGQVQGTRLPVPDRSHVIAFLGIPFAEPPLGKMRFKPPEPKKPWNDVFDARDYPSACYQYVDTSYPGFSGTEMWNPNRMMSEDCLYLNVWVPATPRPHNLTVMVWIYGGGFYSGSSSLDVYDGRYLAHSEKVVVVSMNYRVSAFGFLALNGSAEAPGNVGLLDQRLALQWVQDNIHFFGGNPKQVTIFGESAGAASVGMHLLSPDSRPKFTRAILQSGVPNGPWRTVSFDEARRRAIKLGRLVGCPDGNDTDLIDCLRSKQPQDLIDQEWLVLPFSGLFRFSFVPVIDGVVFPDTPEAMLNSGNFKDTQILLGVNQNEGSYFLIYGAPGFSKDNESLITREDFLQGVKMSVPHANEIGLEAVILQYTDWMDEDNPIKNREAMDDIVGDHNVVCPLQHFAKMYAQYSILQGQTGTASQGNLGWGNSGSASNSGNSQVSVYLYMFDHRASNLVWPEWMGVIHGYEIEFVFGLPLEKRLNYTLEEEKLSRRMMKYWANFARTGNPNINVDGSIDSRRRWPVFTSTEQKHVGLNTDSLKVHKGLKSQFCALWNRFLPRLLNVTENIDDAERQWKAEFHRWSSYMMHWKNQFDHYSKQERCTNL

Compound `COc1c2c(cc3c1[C@@]14CCN(C3)[C@@H]1C[C@@H](OC)[C@@H]1O[C@@H]14)OCO2` has an IC50 (Acetylcholinesterase) of 7.4 µM and a Papp [1] of 18.3 ×10⁻⁶ cm/s.
Compound `COc1cc2c(cc1O)CN1CC[C@@]23C=CC(O)C[C@H]13` (some centres undefined) has an IC50 (Acetylcholinesterase) of 57.4 µM and a Papp [1] of 0.7 ×10⁻⁶ cm/s.
